Measurements taken from US11203591B2, “Substituted 6-azabenzimidazole compounds” (Gilead Sciences, Inc., priority 2018, dated 2021).

target: human HPK1 (MAP4K1) (Homo sapiens (Human), UniProt Q92918); experiment: HPK1 IC50 Assay (TR-FRET peptide phosphorylation); assay type: biochemical; conditions: recombinant HPK1 kinase domain 0.15 nM, 10 μM ATP, 1 μM STK S1 peptide; geometric mean of multiple experiments
Description: The enzymatic activity of human HPK1 (MAP4K1) was monitored in a biochemical assay in the presence or absence of compounds and using a synthetic peptide substrate. An increase in phosphorylation of the peptide by HPK1 was indicative of its kinase activity.
Recombinant HPK1 kinase domain produced via baculovirus infection of insect cells was obtained from Proteros (Proteros Biostructures #PR-0322) and was pre-activated in the presence of 2 mM ATP (Sigma-Aldrich, cat #GE27-2056-01) and 2 mM magnesium chloride for 16 hours at 4° C. The protein reaction mixture was then loaded to a desalting column (Thermo Fisher Scientific, Cat #89889) to remove excess ATP. HPK1 was eluted with buffer containing 20 mM Tris (2-Amino-2-(hydroxymethyl)propane-1,3-diol) pH 8.0, 150 mM NaCl, 2 mM dithiothreitol and 5% glycerol, and was frozen at −80° C. for later use. HPK1 dual phosphorylation was confirmed by mass spectrometry.
Ten nanoliters of test compounds dissolved in DMSO at various concentrations were dispensed into a 384-well ProxiPlate (PerkinElmer #6008289). Five microliters of a solution of recombinant HPK1 diluted in HPK1 kinase assay buffer (50 mM BES [N,N-Bis(2-hydroxyethyl)-2-aminoethanesulfonic acid], pH 7.0; 10 mM magnesium chloride; 0.01% Triton X-100; 1 mM dithiothreitol; 0.01% bovine serum albumin; 0.1 mM sodium orthovanadate) was added to the compound-containing plate and was incubated for 15 minutes at 25° C. Five microliters of a mixture of ATP (Sigma-Aldrich #A6559) and peptide substrate STK S1 (Cisbio #61ST1BLC) diluted in HPK1 kinase assay buffer was then added to start the reaction. Final concentrations were 0.15 nM for HPK1, 10 μM for ATP, and 1 μM for the STK S1 peptide substrate. The reaction mixture was incubated at 25° C. for 3 hours and was stopped with the addition of 10 μl of an EDTA (Ethylenediaminetetraacetic acid)-containing detection buffer (Cisbio #62SDBRDF) supplemented with Europium cryptate-labeled anti-phospho-serine/threonine antibodies (Cisbio #62ST1PEJ) and XL665-labeled streptavidin (Cisbio #610SAXLG). The mixture was incubated for 16 hours at room temperature and peptide phosphorylation was measured by time-resolved fluorescence energy transfer (665 nm/620 nm) on an Envision plate reader (PerkinElmer).
Data in Table 1 were normalized based on positive (staurosporine) and negative (DMSO) controls. Least squares curve fittings were performed using a four-parameter variable slope nonlinear regression model. IC50 is defined as the concentration of compound required to inhibit 50% of maximum phosphorylation. IC50 values from multiple experiments were averaged by geometric mean and the standard deviation was calculated.

human HPK1 (MAP4K1), sequence (Q92918 17-274): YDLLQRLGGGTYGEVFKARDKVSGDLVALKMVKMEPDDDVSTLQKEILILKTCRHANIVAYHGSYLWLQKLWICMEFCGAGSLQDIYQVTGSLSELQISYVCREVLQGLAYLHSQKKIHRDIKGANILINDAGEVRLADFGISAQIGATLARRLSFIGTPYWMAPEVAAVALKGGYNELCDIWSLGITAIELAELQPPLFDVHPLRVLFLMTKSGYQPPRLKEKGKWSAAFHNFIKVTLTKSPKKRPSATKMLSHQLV

Row | IC50 [nM] | SMILES
1 | 0.1 | Cc1c(C(=O)NC2(C(F)F)CC2)cc(Nc2nc(-c3cnc4c(c3)N([C@H]3C[C@@](C)(N5CCCCC5)C3)CC4(C)C)cc3ncn(C(C)C)c23)c(F)c1F [Example 214, N-(1-(Difluoromethyl)cyclopropyl)-5-((6-(3,3-dimethyl-1-((1s,3s)-3-methyl-3-(piperidin-1-yl)cyclobutyl)-2,3-dihydro-1H-pyrrolo[3,2-b]pyridin-6-yl)-3-isopropyl-3H-imidazo[4,5-c]pyridin-4-yl)amino)-3,4-difluoro-2-methylbenzamide]
2 | 0.2 | CNC(=O)c1cc(Nc2nc(-c3ccc4c(c3)N([C@H]3C[C@@H](N5CCCCC5)C3)C(=O)C43CCN(C(=O)C4(C)CC4)CC3)cc3ncn(C(C)C)c23)ccc1C [Example 152, 5-((3-isopropyl-6-(1′-(1-methylcyclopropane-1-carbonyl)-2-oxo-1-((1s,3s)-3-(piperidin-1-yl)cyclobutyl)spiro[indoline-3,4′-piperidin]-6-yl)-3H-imidazo[4,5-c]pyridin-4-yl)amino)-N,2-dimethylbenzamide]
3 | 0.07 | Cc1c(C(=O)NC2(CF)CC2)cc(Nc2nc(-c3cnc4c(c3)N([C@H]3C[C@@](C)(N5CCCCC5)C3)C(=O)C4(C)C)cc3ncn(C(C)C)c23)c(F)c1F [Example 186, 5-((6-(3,3-Dimethyl-1-((1s,3s)-3-methyl-3-(piperidin-1-yl)cyclobutyl)-2-oxo-2,3-dihydro-1H-pyrrolo[3,2-b]pyridin-6-yl)-3-isopropyl-3H-imidazo[4,5-c]pyridin-4-yl)amino)-3,4-difluoro-N-(1-(fluoromethyl)cyclopropyl)-2-methylbenzamide]
4 | 0.3 | CNC(=O)c1cc(Nc2nc(-c3ccc4c(c3)N([C@H]3C[C@@H](NC5CC(F)(F)C5)C3)C(=O)C4(C)C)cc3ncn(C(C)C)c23)ccc1C [Example 81]
5 | 0.3 | CCNC(=O)c1cc(Nc2nc(-c3ccc4c(c3)N([C@H]3C[C@@H](N5CCCCC5)C3)C(=O)C43CCN(C(=O)CC)CC3)cc3ncn(CC)c23)c(F)cc1C [Example 56]
6 | 0.08 | CC(C)n1cnc2cc(-c3cnc4c(c3)N([C@H]3C[C@@](C)(N5CCCCC5)C3)C(=O)C43CCOCC3)nc(Nc3cc(C(=O)NC4(C(F)F)CC4)c(Cl)c(F)c3F)c21 [Example 210, 2-Chloro-N-(1-(difluoromethyl)cyclopropyl)-3,4-difluoro-5-((3-isopropyl-6-(1′-((1s,3s)-3-methyl-3-(piperidin-1-yl)cyclobutyl)-2′-oxo-1′,2,2′,3,5,6-hexahydrospiro[pyran-4,3′-pyrrolo[3,2-b]pyridin]-6′-yl)-3H-imidazo[4,5-c]pyridin-4-yl)amino)benzamide]
7 | 0.08 | CNC(=O)c1cc(Nc2nc(-c3ccc4c(c3)N([C@H]3C[C@@H](N5CCCCC5)C3)C(=O)C4(C)C)cc3ncn(C(C)C)c23)ccc1C [Example 1, 5-((6-(3,3-dimethyl-2-oxo-1-((1s,3s)-3-(piperidin-1-yl)cyclobutyl)indolin-6-yl)-3-isopropyl-3H-imidazo[4,5-c]pyridin-4-yl)amino)-N,2-dimethylbenzamide]
8 | 0.1 | CNC(=O)c1cc(Nc2nc(-c3ccc4c(c3)N([C@H]3C[C@@H](N5CCCC5)C3)C(=O)C4(C)C)cc3ncn(C(C)C)c23)ccc1C [Example 103]
9 | 0.2 | CNC(=O)c1cc(Nc2nc(-c3ccc4c(c3)N([C@H]3C[C@@H](N5CCCCC5)C3)C(=O)C4(C)C)cc3ncn(C4CC4)c23)ccc1C [Example 79]
10 | 0.07 | Cc1ccc(Nc2nc(-c3ccc4c(c3)N([C@H]3C[C@@H](N5CCCCC5)C3)C(=O)C4(C)C)cc3ncn(C(C)C)c23)cc1C(=O)NC1(C(F)F)CC1 [Example 27]
11 | 0.3 | CC[C@]1(N2CCCCC2)C[C@@H](N2C(=O)C(C)(C)c3ncc(-c4cc5ncn(C(C)C)c5c(Nc5cc(C(=O)NC6(C(F)F)CC6)c(C)cc5F)n4)cc32)C1 [Example 213, N-(1-(Difluoromethyl)cyclopropyl)-5-((6-(1-((1r,3s)-3-ethyl-3-(piperidin-1-yl)cyclobutyl)-3,3-dimethyl-2-oxo-2,3-dihydro-1H-pyrrolo[3,2-b]pyridin-6-yl)-3-isopropyl-3H-imidazo[4,5-c]pyridin-4-yl)amino)-4-fluoro-2-methylbenzamide]
